The structures appear in SMILES notation.

The source of these data is patent publication US9339508B2, “Use of 3-methoxy-pregnenolone for the preparation of a drug for treating a traumatic brain injury” (MAPREG, priority 2003, dated 2016).

Series [1] can be described thus: MAP4343 in the brain after TBI (CHI, LFP, CCI) by LC-MS/MS. The format is in vivo, rat. The conditions noted are these: 6 h after CHI, LFP or CCI, 4 h after single subcutaneous injection. As to the method: MAP4343 was dissolved in sesame oil and injected sub-cutaneously. Two distinct doses of MAP4343 (10 and 20 mg/kg) were tested in each model. The injection took place 2 h after trauma.
In order to establish whether TBI modifies the passage of MAP4343 into the brain, MAP4343 was measured by liquid chromatography associated to tandem mass spectrometry (LC-MS/MS) in the brain of animals sacrificed 6 h after CHI, LFP or CCI (4 h after MAP4343 single injection).
In order to establish whether TBI modifies the passage of 3-methoxy-PREG (MAP434) into the brain, MAP4343 was measured by liquid chromatography coupled to tandem mass spectrometry LC-MS/MS in the brain of animals sacrificed 6 h after CHI, LFP or CCI (4 h. after MAP4343 injection).

Another series concerns CHI traumatized rats. The series can be described thus: MRI of ventricular dilatation after Closed Head Injury (CHI). The format is in vivo, rat. To be noted: day 28 post-trauma, 20 mg/kg starting 24 hours post-trauma, compared to the vehicle. From the text: The model “Closed Head Injury” (CHI), also commonly known as “weight-drop”, “impact-acceleration” or Marmarou model, allows the induction of TBI on a closed skull and generates diffuse axonal injuries (Holtzer et al 2001). After anesthesia induction, the scalp was incised, a piece of metal (diameter 10 mm, height 3 mm)—designed to protect against skull fracture—was glued to the skull, between the lambda and bregma. The animal was then placed on a foam bed and a cylindrical metallic 230-g weight was dropped from 2 m through a metal tubing onto the disk. At the very moment of the impact, the head of the animal plunged briefly in the foam bed, which leads to an acceleration/deceleration of the brain inside the skull.
To determine lateral ventricle preservation, as well as lesion size (in the CCI model), T2-weighted MRI was performed 28 days after injury (D28). Acquisition was performed on a 7T Bruker AVANCE BIOSPEC—horizontal magnet, with rapid acquisition and relaxation enhancement (RARE).
MRI imaging of rats was performed at day 28 post-trauma. Based on MRI imaging, ventricular dilatation induced by CHI trauma was analyzed in CHI traumatized rats injected from 24 hours post-trauma with sesame oil (CHI-D0), or 3-methoxy-PREG (MAP4343) at 10 mg/kg (CHI-D1) or 20 mg/kg (CHI-D2).

The test system of a further series is Sprague Dawley rats. Put plainly: Forced swimming test (FST). It is filed as in vivo, rat. To be noted: 10 mg/kg subcutaneously, 24, 5, 1 h before testing. As to the method: Drugs were administered following the traditional dosing regimen used in the FST consisting of three injections: 24, 5, 1 h before testing.
The FET is currently the most widely used animal model for assessing depression related behavior and antidepressant drug activity in rodents (Cryan et al., Neubiorev. 2005). Rats are placed in an inescapable cylinder of water where they develop an immobile posture believed to reflect a “depressive”-like state. The Lime rats spend immobile is decreased by drugs exerting antidepressant activity.
Additional behaviors can be detected in the FST; namely, climbing and swimming. It has been shown that swimming behavior is sensitive to SSRIs such as fluoxetine whereas climbing is sensitive to norepinephrine re-uptake inhibitors (NRI) such as desipramine.

The nature of series [2]: In vivo toxicity, daily injection for one month. More on the design: species or system rat. To be noted: rats, 48 mg/kg daily injection for one month.
The target of series [3] is T1, microtubule-associated MAP2 (Rattus norvegicus, UniProt P15146).
T1 construct: endogenous in cells; host or cells: PC12 cells
T1 sequence (P15146 whole entry): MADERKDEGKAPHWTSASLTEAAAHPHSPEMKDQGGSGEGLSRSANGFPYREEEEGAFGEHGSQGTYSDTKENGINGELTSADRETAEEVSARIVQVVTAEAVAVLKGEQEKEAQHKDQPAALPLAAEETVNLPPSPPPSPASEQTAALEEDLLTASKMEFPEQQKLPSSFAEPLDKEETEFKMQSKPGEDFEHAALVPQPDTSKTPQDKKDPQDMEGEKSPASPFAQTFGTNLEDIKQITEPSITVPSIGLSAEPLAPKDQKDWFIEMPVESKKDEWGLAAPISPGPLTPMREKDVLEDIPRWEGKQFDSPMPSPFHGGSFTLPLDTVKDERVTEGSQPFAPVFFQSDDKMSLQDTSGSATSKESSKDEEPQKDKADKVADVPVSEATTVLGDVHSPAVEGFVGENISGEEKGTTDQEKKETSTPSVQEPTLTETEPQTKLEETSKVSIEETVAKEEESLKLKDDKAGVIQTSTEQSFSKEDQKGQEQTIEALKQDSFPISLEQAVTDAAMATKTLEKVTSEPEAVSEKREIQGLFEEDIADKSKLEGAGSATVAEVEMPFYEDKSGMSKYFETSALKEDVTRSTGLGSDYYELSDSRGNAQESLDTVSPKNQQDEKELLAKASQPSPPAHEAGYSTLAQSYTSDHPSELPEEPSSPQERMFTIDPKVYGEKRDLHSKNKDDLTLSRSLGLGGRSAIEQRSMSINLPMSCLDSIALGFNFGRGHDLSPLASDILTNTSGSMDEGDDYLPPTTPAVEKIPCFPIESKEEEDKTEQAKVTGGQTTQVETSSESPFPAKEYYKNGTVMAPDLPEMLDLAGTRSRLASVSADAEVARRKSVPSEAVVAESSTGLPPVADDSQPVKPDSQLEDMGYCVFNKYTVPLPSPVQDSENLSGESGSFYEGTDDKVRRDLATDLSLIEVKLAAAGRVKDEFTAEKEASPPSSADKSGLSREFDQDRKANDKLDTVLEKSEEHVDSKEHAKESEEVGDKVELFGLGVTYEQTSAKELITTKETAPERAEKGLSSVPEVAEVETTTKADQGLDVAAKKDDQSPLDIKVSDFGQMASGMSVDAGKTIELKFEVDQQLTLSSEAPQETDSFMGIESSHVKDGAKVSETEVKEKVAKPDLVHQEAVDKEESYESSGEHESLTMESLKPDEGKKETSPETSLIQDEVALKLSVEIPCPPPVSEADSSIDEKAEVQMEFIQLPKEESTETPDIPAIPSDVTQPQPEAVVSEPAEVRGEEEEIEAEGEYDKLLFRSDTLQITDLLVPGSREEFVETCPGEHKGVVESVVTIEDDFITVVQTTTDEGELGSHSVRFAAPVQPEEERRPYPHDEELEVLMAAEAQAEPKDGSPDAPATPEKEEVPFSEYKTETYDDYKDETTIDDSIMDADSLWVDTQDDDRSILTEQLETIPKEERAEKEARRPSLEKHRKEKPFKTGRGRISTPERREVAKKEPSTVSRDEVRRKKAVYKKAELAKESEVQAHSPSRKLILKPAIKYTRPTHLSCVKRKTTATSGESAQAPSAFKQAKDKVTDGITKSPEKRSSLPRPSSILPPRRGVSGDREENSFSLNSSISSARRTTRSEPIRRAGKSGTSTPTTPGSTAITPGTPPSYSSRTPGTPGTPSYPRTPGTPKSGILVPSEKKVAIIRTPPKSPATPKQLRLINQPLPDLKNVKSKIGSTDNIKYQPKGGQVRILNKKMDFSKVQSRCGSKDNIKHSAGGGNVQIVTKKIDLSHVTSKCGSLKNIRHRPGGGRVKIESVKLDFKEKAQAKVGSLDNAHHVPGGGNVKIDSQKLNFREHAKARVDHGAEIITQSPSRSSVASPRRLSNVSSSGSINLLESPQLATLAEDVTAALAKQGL
Put plainly: Immunolabeling of microtubule-associated MAP2 in PC12 cells. To be noted: 20 μM, NGF 10 ng/ml. It is filed as cell-based. From the text:
They were fixed and exposed to anti-MAP2 antibodies that reveal microtubule-associated MAP2 esclusively.
To rest the effect of selected molecules on neuritic growth, we first used the PC12 line, which has long been employed in neurobiological research. In the presence of NOF (nerve growth factor), the cells of this line, which arise from a rat pheochromocytoma, form neuritic extensions containing MAP-associated microtubules. The growth of these elongations is stimulated by the addition of PREG. […] The screening of other natural or synthetic steroids made it possible to select several molecules presenting greater effects than that of PRIG (FIG. 2). In particular, the addition of molecule 43B, which can be synthesized easily from PRIG, caused a spectacular increase (reaching as high as 500%) in the length of neurites formed in the presence of NOF (FIG. 3). This neurite growth accompanies the stimulation by 43-3 of the association of MAP2 to the microtubules (FIG. 4).

The test system of a further series is GAP43. Put plainly: Western blot of GAP43 in cortex and hippocampus after CCI. To be noted: day 35, injured cortex (20 mg/kg only), hippocampus and non-injured cortex (both doses). The format is in vivo, rat. As for the experimental part:
CCI was performed with an electromagnetic impact device as described (MyNeurolab, St. Louis, Mo.; Brody et al, 2007). Anesthesized rats were subjected to a single right lateral CCI, with the following parameters impact centered 4.0 mm anterior to lambda and 4.5 mm […] of midline, within the craniotomy of the animal. The impact was set at a velocity of 4 m/s with a sustained depression of 200 ms, using a 5.0 mm tip.
Samples were analyzed by Western-blot at day 35 post-trauma (D35) to evaluate the effects of MAP4343 on: MAP2 (the target of MAP4343 and a modulator of microtubule function), the post-synaptic markers PSD95 and spinophilin, the pre-synaptic marker synaptophysin, and the axonal growth/integrity marker […].
Western blot was performed on cortex and hippocampus of TBI-injured animals receiving the first injection of MAP4343 (at 10 mg/kg or 20 mg/kg) or vehicle (sesame oil) 2 h after injury.
The expression level of various neuronal brain markers of plasticity was measured at day 35 post-trauma by western-blots in the cortex and hippocampus of left uninjured and right injured cerebral hemispheres of CCI traumatized animals receiving either vehicle (sesame oil, CCI-D0) or 3-methoxy-PREG (MAP4343) at 10 mg/kg (CCI-D1) or 20 mg/kg (CCI-D2), with first MAP4343 injection 2 h post-trauma.

The next series concerns PC12 cell line. Put plainly: Cellular toxicity on the PC12 cell line. It is filed as cell-based, rat. The conditions noted are these: concentrations as high as solubility limits. As to the method:
Cellular toxicity tests are carried out routinely on the PC12 cell line.

For `CO[C@H]1CC[C@@]2(C)C(=CC[C@H]3[C@@H]4CC[C@H](C(C)=O)[C@@]4(C)CC[C@@H]32)C1` [3-methoxy-PREG, 3β-methoxy-pregna-5-ene-20-one], the “concentrations of MAP4343 that reach the brain” value in series [1] is reported as “concentrations of MAP4343 of significant therapeutic interest reach the brain”. The ventricular dilatation result in the series with CHI traumatized rats is recorded as “significantly decreases the ventricular dilatation”. Also, in the series with Sprague Dawley rats, the “rat climbing behavior in the FST” value is “not changed”, the “rat immobility in the FST” value was “significantly decreased” and the “rat swimming in the FST” value is recorded as “significantly increased”. Moreover, the “average weight and behavior” value in series [2] was “affected neither average weight nor behavior”. In series [3], the “association of MAP2 to the microtubules” value is “stimulation”. Also, the GAP-43 expression entry in the series on GAP43 is reported as “increased GAP-43 expression”. The cellular toxicity entry in the series with PC12 cell line is listed as “do not demonstrate toxicity”.
